According to patent US20170349638A1, “COMPANION DIAGNOSTIC TOOL FOR PEPTIDOMIMETIC MACROCYCLES” (AILERON Therapeutics, Inc., priority 2016, published 2017):
pIC50, pKi: −log10 of the molar value. One block for each molecule: values may come before it. Where a SMILES comes first, the peptide text is derived from it. Bridges are numbered along the chain shown (N, C = ends). [ ]: non-standard residue; d: D form. Trp(6-Cl) = N[C@@H](Cc1c[nH]c2cc(Cl)ccc12)C(=O)O; R8 = C=CCCCCCC[C@@](C)(N)C(=O)O; S5 = C=CCCC[C@](C)(N)C(=O)O; Ac3c = NC1(C(=O)O)CC1

Columns and labels:
HDMx = HDMx (Homo sapiens, UniProt O15151); assay: FP Competition Blinding Assay | HDMx IC50 (nM)
HDMx, sequence (O15151 whole entry, looked up): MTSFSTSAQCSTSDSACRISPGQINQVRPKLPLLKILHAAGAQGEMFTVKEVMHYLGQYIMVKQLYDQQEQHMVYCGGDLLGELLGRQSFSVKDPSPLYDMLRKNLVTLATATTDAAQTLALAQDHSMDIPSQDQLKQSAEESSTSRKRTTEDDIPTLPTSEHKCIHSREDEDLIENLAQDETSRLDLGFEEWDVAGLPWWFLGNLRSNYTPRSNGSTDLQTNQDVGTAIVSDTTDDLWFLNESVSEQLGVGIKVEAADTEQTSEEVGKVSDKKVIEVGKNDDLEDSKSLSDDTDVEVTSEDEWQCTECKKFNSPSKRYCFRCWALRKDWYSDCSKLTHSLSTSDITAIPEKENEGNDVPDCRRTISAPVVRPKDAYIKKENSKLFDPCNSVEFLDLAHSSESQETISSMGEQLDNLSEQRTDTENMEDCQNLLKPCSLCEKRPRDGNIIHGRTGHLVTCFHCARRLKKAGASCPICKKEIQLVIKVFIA

SJSA-1 cells = assay: Cell lysis by peptidomimetic macrocycles (LDH release); assay type: cell-based; details: 1 h incubation
Experimental: On the day of the assay, media was exchanged with RPMI 1% FBS media, 90 μl of media per well.
10 mM stock solutions of the peptidomimetic macrocycles were prepared in 100% DMSO.
The negative control (non-lytic) sample was 0.5% DMSO alone and positive control (lytic) samples include 10 uM Melittin and 1% Triton X-100.
Cell plates were incubated for 1 hour at 37° C. After the 1 hour incubation, the morphology of the cells is examined by microscope and then the plates were centrifuged at 1200 rpm for 5 minutes at room temperature. 40 μl of supernatant for each peptidomimetic macrocyle and control sample is transferred to clear assay plates.

[1] = test system: Caspase 3 activation in SJSA1 cells; assay: Caspase 3 detection assay; assay type: cell-based; details: 48 h, Caspase 3 activation over DMSO-treated cells
Experimental: Read on Synergy Biotek multiplate reader for luminescence. Data is analyzed as Caspase 3 activation over DMSO-treated cells.

HDM2 = HDM2 (Homo sapiens, UniProt Q00987); assay: FP Competition Blinding Assay | HDM2 IC50 (nM)
HDM2, sequence (Q00987 whole entry, looked up): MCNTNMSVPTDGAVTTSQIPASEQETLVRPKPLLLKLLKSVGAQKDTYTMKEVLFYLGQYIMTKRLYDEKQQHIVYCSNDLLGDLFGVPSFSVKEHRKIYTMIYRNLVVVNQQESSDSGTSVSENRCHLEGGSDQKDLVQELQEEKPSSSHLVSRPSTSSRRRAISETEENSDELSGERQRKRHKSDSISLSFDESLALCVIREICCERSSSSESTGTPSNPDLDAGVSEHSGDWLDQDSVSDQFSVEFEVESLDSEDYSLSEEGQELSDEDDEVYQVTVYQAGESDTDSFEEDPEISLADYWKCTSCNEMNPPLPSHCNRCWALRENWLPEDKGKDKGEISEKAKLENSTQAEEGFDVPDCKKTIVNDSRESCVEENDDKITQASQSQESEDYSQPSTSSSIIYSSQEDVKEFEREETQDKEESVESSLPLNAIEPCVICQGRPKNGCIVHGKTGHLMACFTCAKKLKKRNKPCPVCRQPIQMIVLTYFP

GST-hDM2 = GST-hDM2 (Homo sapiens, UniProt Q00987); assay: Competition ELISA IC50 (nM) | GST-hDM2
GST-hDM2, sequence (Q00987 whole entry, looked up): as above
Text: Table printed on a drawing sheet, FIGURE 5A
Head of the field: Competition ELISA IC50 (nM) | GST-hDM2
The patent's description of the figure: FIGS. 5A-F describe the results of a cell viability assay, a competition ELISA assay, GRIP assay, Kd data, p21 activation assay, fluorescence polarization competition binding and circular helicity data for exemplary peptidomimetic macrocycles of the invention.
First copying reader's note: First part of a table that continues on FIGS. 5B-F; the print is coarse, several cells hold replicate values separated by; or , and some values sit slightly off their row line.
Where the first naming reader finds the target: head: Competition ELISA IC50 (nM) | GST-hDM2

MDMX = target: T1, MDMX (Homo sapiens, UniProt O15151); assay: Competitive fluorescence polarization assay MDMX; assay type: binding; details: Table 26B; competitive FP
T1 sequence (O15151 1-125): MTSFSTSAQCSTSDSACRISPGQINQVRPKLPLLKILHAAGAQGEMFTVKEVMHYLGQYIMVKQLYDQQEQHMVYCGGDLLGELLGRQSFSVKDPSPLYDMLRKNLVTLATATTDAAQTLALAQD
Experimental: Dilute MDMX (In-house, 40 kD) into FP buffer (High salt buffer—200 mM NaCl, 5 mM CHAPS, pH 7.5.) to make 300 nM (2×) working stock solution. • 2. Add 20 μl of 300 nM (2×) of protein stock solution into each well of 96-well black HE microplate (Molecular Devices) • 3. Dilute 1 mM (in 100% DMSO) of FAM labeled linear peptide with DMSO to 100 μM (dilution 1:10). Then, dilute from 100 μM to 10 μM with water (dilution 1:10) and then dilute with FP buffer from 10 μM to 40 nM (dilution 1:250). This is the working solution which will be a 10 nM concentration in well (dilution 1:4). Keep the diluted FAM labeled peptide in the dark until use. • 4. […] Dilute 10 mM (in 100% DMSO) with DMSO to 5 mM (dilution 1:2). Then, dilute from 5 mM to 500 μM with H2O (dilution 1:10) and then dilute with FP buffer from 500 μM to 20 μM (dilution 1:25). […] Transfer 10 μl of serial diluted unlabeled peptides to each well which is filled with 20 μl of 300 nM of protein. • 7. Add 10 μl of 10 nM (4×) of FAM labeled peptide into each well and incubate for 3 hr to read.

MDM2 = MDM2 (Homo sapiens, UniProt Q00987); assay: Competitive fluorescence polarization assay for MDM2; assay type: binding; details: Table 26B; competitive FP; read-out: Ki (MDM2)
MDM2, sequence (Q00987 1-125): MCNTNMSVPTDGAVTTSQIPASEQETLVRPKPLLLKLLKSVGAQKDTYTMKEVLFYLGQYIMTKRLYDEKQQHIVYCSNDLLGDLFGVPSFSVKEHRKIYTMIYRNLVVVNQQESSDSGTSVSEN
Experimental: Dilute 1 mM (in 100% DMSO) of FAM labeled linear peptide with DMSO to 100 μM (dilution 1:10). Then, dilute from 100 μM to 10 μM with water (dilution 1:10) and then dilute with FP buffer from 10 μM to 40 nM (dilution 1:250). This is the working solution which will be a 10 nM concentration in well (dilution 1:4). Keep the diluted FAM labeled peptide in the dark until use. • 4. […] Dilute 10 mM (in 100% DMSO) with DMSO to 5 mM (dilution 1:2). Then, dilute from 5 mM to 500 μM with H2O (dilution 1:10) and then dilute with FP buffer from 500 μM to 20 μM (dilution 1:25). […] Add 10 μl of 10 nM (4×) of FAM labeled peptide into each well and incubate for 3 hr to read.

- pIC50 (HDMx): 6.52
Molecule: CC(=O)N[C@@H](CC(C)C)C(=O)N[C@H](C(=O)N[C@@H](Cc1ccccc1)C(=O)N[C@]1(C)CCCCCCC=CCCC[C@@](C)(C(=O)N[C@@H](CO)C(N)=O)NC(=O)[C@H](CC(C)C)NC(=O)[C@H](CCC(N)=O)NC(=O)[C@H](C)NC(=O)[C@H](Cc2c[nH]c3ccccc23)NC(=O)[C@H](Cc2ccc(O)cc2)NC(=O)[C@H](C(C)C)NC1=O)[C@@H](C)O [SP-266, Ac- L T F $r8 V Y W A Q L $ S -NH2] (Ac-LTF[R8]VYWAQL[S5]S-NH2; staple 4-11 (inferred))

Molecule: 287 (LTFAEYWAQAAAAIA; not fully specified; Ac, NH2, staple, difluoro-Phe, Cba; N-term Ac; MOD_RES (3)..(3): 3,4-difluoro-Phe; MOD_RES (4)..(4): Alpha-Me R-azide 1,4 triazole (6 carbon) alanine olefin amino acid connected by an all-carbon crosslinker comprising one double bond; misc_feature (4)..(11): C) [compound 287]
- 6.25 uM % Lysed cells (1 h LDH) (SJSA-1 cells; 6.25 uM): 0%
- 25 uM % Lysed cells (1 h LDH) (SJSA-1 cells; 25 uM): 11%
- 50 uM % Lysed cells (1 h LDH) (SJSA-1 cells; 50 uM): 56%
- caspase 0.3 uM ([1]; 0.3 uM): 1
- caspase 1 uM ([1]; 1 uM): 1
- caspase 3 uM ([1]; 3 uM): 3
- caspase 10 uM ([1]; 10 uM): 11
- caspase 30 uM ([1]; 30 uM): 23

- pIC50 (HDM2): 6.72
Molecule: CC(=O)N[C@@H](CC(C)C)C(=O)N[C@H](C(=O)N[C@@H](Cc1ccccc1)C(=O)N[C@]1(C)CCCCCCC=CCCC[C@@](C)(C(=O)N[C@@H](CO)C(N)=O)NC(=O)[C@H](CC(C)C)NC(=O)[C@H](CCC(N)=O)NC(=O)[C@H](C)NC(=O)[C@H](Cc2c[nH]c3ccccc23)NC(=O)[C@H](Cc2ccc(O)cc2)NC(=O)[C@H](Cc2ccccc2)NC1=O)[C@@H](C)O [SP-267, Ac- L T F $r8 F Y W A Q L $ S -NH2] (Ac-LTF[R8]FYWAQL[S5]S-NH2; staple 4-11 (inferred))

- pIC50 (HDM2): 6.94
Molecule: CC(=O)N[C@@H](Cc1ccccc1)C(=O)N[C@]1(C)CCCCCCC=CCCC[C@@](C)(C(=O)N[C@@H](C)C(N)=O)NC(=O)[C@H](CC(C)C)NC(=O)C2(CC2)NC(=O)[C@H](CCC(=O)O)NC(=O)[C@H](Cc2c[nH]c3cc(Cl)ccc23)NC(=O)[C@H](Cc2ccc(O)cc2)NC(=O)[C@H](C)NC1=O [SP-128, Ac- F $r8 A Y 6clW E Ac3c L $ A -NH2] (Ac-F[R8]AY[Trp(6-Cl)]E[Ac3c]L[S5]A-NH2; staple 2-9 (inferred))

- pIC50 (HDM2): 7.33
- pIC50 (HDMx): 6.84
Molecule: CC(=O)N[C@@H](CC(C)C)C(=O)N[C@H](C(=O)N[C@@H](Cc1ccccc1)C(=O)N[C@]1(C)CCCCCCC=CCCC[C@@](C)(C(=O)N[C@@H](CO)C(N)=O)NC(=O)[C@H](CC(C)C)NC(=O)[C@H](C)NC(=O)[C@H](C)NC(=O)[C@H](Cc2c[nH]c3ccccc23)NC(=O)[C@H](Cc2ccc(O)cc2)NC(=O)[C@H](C)NC1=O)[C@@H](C)O [SP-351, Ac- L T F $r8 A Y W A A L $ S -NH2] (Ac-LTF[R8]AYWAAL[S5]S-NH2; staple 4-11 (inferred))

- IC50 (GST-hDM2): 13.4 nM
Molecule: CC(=O)N[C@@H](CC(C)C)C(=O)N[C@@H](CO)C(=O)N[C@@H](CCC(N)=O)C(=O)N[C@@H](CCC(N)=O)C(=O)N[C@H](C(=O)N[C@@H](Cc1ccccc1)C(=O)N[C@]1(C)CCCCCCC=CCCC[C@@](C)(C(=O)N[C@@H](CCC(N)=O)C(=O)N[C@@H](CC(N)=O)C(N)=O)NC(=O)[C@H](CC(C)C)NC(=O)[C@H](CC(C)C)NC(=O)[C@H](CCCNC(=N)N)NC(=O)[C@H](Cc2c[nH]c3ccccc23)NC(=O)[C@H](CC(C)C)NC(=O)[C@H](CC(N)=O)NC1=O)[C@@H](C)O [SP-3, Ac-LSQQTF$r8NLWRLL$QN-NH2] (Ac-LSQQTF[R8]NLWRLL[S5]QN-NH2; staple 7-14 (inferred))

- pIC50 (HDMx): 6.69
Molecule: CC(=O)N[C@@H](Cc1c[nH]c2ccccc12)C(=O)N[C@H](C(=O)N[C@@H](Cc1ccccc1)C(=O)N[C@]1(C)CCCCCCC=CCCC[C@@](C)(C(=O)N[C@@H](CO)C(N)=O)NC(=O)[C@H](CC(C)C)NC(=O)[C@H](CCC(N)=O)NC(=O)[C@H](C)NC(=O)[C@H](Cc2c[nH]c3ccccc23)NC(=O)[C@H](Cc2ccc(O)cc2)NC(=O)[C@H](Cc2c[nH]cn2)NC1=O)[C@@H](C)O [SP-256, Ac- W T F $r8 H Y W A Q L $ S -NH2] (Ac-WTF[R8]HYWAQL[S5]S-NH2; staple 4-11 (inferred))

- pKi (MDMX): > 8.00
- pKi (MDM2): > 8.00
Molecule: CC(=O)N[C@@H](CC(C)C)C(=O)N[C@H](C(=O)N[C@@H](Cc1ccccc1)C(=O)N[C@]1(C)CCCCCCn2nnc(c2I)CCC[C@@](C)(C(=O)N[C@@H](CO)C(=O)N[C@@H](C)C(=O)N[C@@H](C)C(N)=O)NC(=O)[C@H](CC2CCC2)NC(=O)[C@H](CCC(N)=O)NC(=O)[C@H](C)NC(=O)[C@H](Cc2c[nH]c3ccccc23)NC(=O)[C@H](Cc2ccc(O)cc2)NC(=O)[C@H](CCC(=O)O)NC1=O)[C@@H](C)O [SP457, Ac-LTF$4rn6EYWAQCba5I-$4a5SAA-NH2]

- pIC50 (HDM2): 7.13
- pIC50 (HDMx): 7.01
Molecule: CC(=O)N[C@@H](CC(C)C)C(=O)N[C@H](C(=O)N[C@@H](Cc1ccccc1)C(=O)N[C@]1(C)CCCCCC/C=C/CCC[C@@](C)(C(=O)N[C@@H](CO)C(N)=O)NC(=O)[C@H](CC(C)C)NC(=O)[C@H](CCC(N)=O)NC(=O)[C@H](C)NC(=O)[C@H](Cc2c[nH]c3ccccc23)NC(=O)[C@H](Cc2ccc(O)cc2)NC(=O)[C@H](C)NC1=O)[C@@H](C)O [SP-190, Ac- L T F $er8 A Y W A Q L $e S -NH2] (Ac-LTF[R8]AYWAQL[S5]S-NH2; staple (E) 4-11 (inferred))
